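Protocol summary: plate cells (96-well), add compound at 5 concentrations, incubate 48 h, interpolate endpoints linearly. GI50 is the concentration that inhibits growth by half. At the TGI there is no net growth.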
Experiments:
Test in all cases: NCI tumour cell line growth inhibition, 48 h
786-0 renal = tested on: 786-0 renal
A498 renal = tested on: A498 renal
A549 NSCLC = tested on: A549 NSCLC
ACHN renal = tested on: ACHN renal
BT-549 breast = tested on: BT-549 breast
CCRF-CEM leukemia = tested on: CCRF-CEM leukemia
COLO 205 colon = tested on: COLO 205 colon
DU-145 prostate = tested on: DU-145 prostate
EKVX NSCLC = tested on: EKVX NSCLC
HCT-116 colon = tested on: HCT-116 colon
HCT-15 colon = tested on: HCT-15 colon
HL-60(TB) leukemia = tested on: HL-60(TB) leukemia
HOP-62 NSCLC = tested on: HOP-62 NSCLC
HOP-92 NSCLC = tested on: HOP-92 NSCLC
HS 578T breast = tested on: HS 578T breast
HT29 colon = tested on: HT29 colon
IGROV1 ovarian = tested on: IGROV1 ovarian
K-562 leukemia = tested on: K-562 leukemia
KM12 colon = tested on: KM12 colon
LOX IMVI melanoma = tested on: LOX IMVI melanoma
M14 melanoma = tested on: M14 melanoma
MALME-3M melanoma = tested on: MALME-3M melanoma
MCF7 breast = tested on: MCF7 breast
MDA-MB-231 breast = tested on: MDA-MB-231 breast
MDA-MB-435 = tested on: MDA-MB-435
MOLT-4 leukemia = tested on: MOLT-4 leukemia
NCI-H226 lung = tested on: NCI-H226 lung
NCI-H23 lung = tested on: NCI-H23 lung
NCI-H460 lung = tested on: NCI-H460 lung
NCI/ADR-RES ovarian = tested on: NCI/ADR-RES ovarian
OVCAR-3 ovarian = tested on: OVCAR-3 ovarian
OVCAR-4 ovarian = tested on: OVCAR-4 ovarian
OVCAR-5 ovarian = tested on: OVCAR-5 ovarian
OVCAR-8 ovarian = tested on: OVCAR-8 ovarian
PC-3 prostate = tested on: PC-3 prostate
RPMI-8226 leukemia = tested on: RPMI-8226 leukemia
RXF 393 renal = tested on: RXF 393 renal
SF-268 CNS = tested on: SF-268 CNS
SF-539 CNS = tested on: SF-539 CNS
SK-MEL-2 melanoma = tested on: SK-MEL-2 melanoma
SK-MEL-28 melanoma = tested on: SK-MEL-28 melanoma
SK-MEL-5 melanoma = tested on: SK-MEL-5 melanoma
SK-OV-3 ovarian = tested on: SK-OV-3 ovarian
SN12C renal = tested on: SN12C renal
SNB-19 CNS = tested on: SNB-19 CNS
SNB-75 CNS = tested on: SNB-75 CNS
SW-620 colon = tested on: SW-620 colon
T-47D breast = tested on: T-47D breast
TK-10 renal = tested on: TK-10 renal
U251 CNS = tested on: U251 CNS
UACC-257 melanoma = tested on: UACC-257 melanoma
UACC-62 melanoma = tested on: UACC-62 melanoma
UO-31 renal = tested on: UO-31 renal

With `CCN(CC)CCNc1ccc([N+](=O)[O-])c2sc3ccccc3c(=O)c12` the GI50 (786-0 renal) was 958 nM, the TGI (786-0 renal) was 2350 nM and the GI50 (A498 renal) was 591 nM. It also gave a TGI (A498 renal) of 2160 nM, a GI50 (A549 NSCLC) of 656 nM and a TGI (A549 NSCLC) of 2150 nM. The GI50 (ACHN renal) was 646 nM, the TGI (ACHN renal) was 4.44 µM and the GI50 (BT-549 breast) was 1740 nM. It also gave a TGI (BT-549 breast) of 7.8 µM, a GI50 (CCRF-CEM leukemia) of 732 nM and a TGI (CCRF-CEM leukemia) of 3.26 µM. It also gave a GI50 (COLO 205 colon) of 1350 nM, a TGI (COLO 205 colon) of 3.58 µM and a GI50 (DU-145 prostate) of 766 nM. It also gave a TGI (DU-145 prostate) of 2050 nM, a GI50 (EKVX NSCLC) of 692 nM and a TGI (EKVX NSCLC) of 2530 nM. For the same molecule, the GI50 (HCT-116 colon) was 360 nM, the TGI (HCT-116 colon) was 1560 nM and the GI50 (HCT-15 colon) was 1700 nM. For the same molecule, the TGI (HCT-15 colon) was 7.59 µM, the GI50 (HL-60(TB) leukemia) was 783 nM and the TGI (HL-60(TB) leukemia) was 3.27 µM. For the same molecule, the GI50 (HOP-62 NSCLC) was 1270 nM, the TGI (HOP-62 NSCLC) was 3.64 µM and the GI50 (HOP-92 NSCLC) was 1260 nM. For the same molecule, the TGI (HOP-92 NSCLC) was 3.36 µM, the GI50 (HS 578T breast) was 2170 nM and the TGI (HS 578T breast) was 8.15 µM. It also gave a GI50 (HT29 colon) of 392 nM, a TGI (HT29 colon) of 1590 nM and a GI50 (IGROV1 ovarian) of 285 nM. The TGI (IGROV1 ovarian) was 1020 nM, the GI50 (K-562 leukemia) was 582 nM and the TGI (K-562 leukemia) was 3.39 µM. It also gave a GI50 (KM12 colon) of 1190 nM, a TGI (KM12 colon) of 2550 nM and a GI50 (LOX IMVI melanoma) of 421 nM. For the same molecule, the TGI (LOX IMVI melanoma) was 1790 nM, the GI50 (M14 melanoma) was 1360 nM and the TGI (M14 melanoma) was 2850 nM. The GI50 (MALME-3M melanoma) was 1470 nM, the TGI (MALME-3M melanoma) was 3.63 µM and the GI50 (MCF7 breast) was 1270 nM. It also gave a TGI (MCF7 breast) of 4.74 µM, a GI50 (MDA-MB-231 breast) of 2290 nM and a TGI (MDA-MB-231 breast) of 9.15 µM. For the same molecule, the GI50 (MDA-MB-435) was 901 nM, the TGI (MDA-MB-435) was 2320 nM and the GI50 (MOLT-4 leukemia) was 386 nM. It also gave a TGI (MOLT-4 leukemia) of 1870 nM, a GI50 (NCI-H226 lung) of 2060 nM and a TGI (NCI-H226 lung) of 6.6 µM. It also gave a GI50 (NCI-H23 lung) of 1230 nM, a TGI (NCI-H23 lung) of 2780 nM and a GI50 (NCI-H460 lung) of 443 nM. For the same molecule, the TGI (NCI-H460 lung) was 1960 nM, the GI50 (NCI/ADR-RES ovarian) was 586 nM and the TGI (NCI/ADR-RES ovarian) was 2720 nM. It also gave a GI50 (OVCAR-3 ovarian) of 1320 nM, a TGI (OVCAR-3 ovarian) of 2690 nM and a GI50 (OVCAR-4 ovarian) of 1350 nM. It also gave a TGI (OVCAR-4 ovarian) of 2810 nM, a GI50 (OVCAR-5 ovarian) of 3.47 µM and a TGI (OVCAR-5 ovarian) of 15.2 µM. For the same molecule, the GI50 (OVCAR-8 ovarian) was 571 nM, the TGI (OVCAR-8 ovarian) was 2420 nM and the GI50 (PC-3 prostate) was 1050 nM. For the same molecule, the TGI (PC-3 prostate) was 2470 nM, the GI50 (RPMI-8226 leukemia) was 915 nM and the TGI (RPMI-8226 leukemia) was 2840 nM. It also gave a GI50 (RXF 393 renal) of 1430 nM, a TGI (RXF 393 renal) of 3.03 µM and a GI50 (SF-268 CNS) of 1080 nM. It also gave a TGI (SF-268 CNS) of 2500 nM, a GI50 (SF-539 CNS) of 3.09 µM and a TGI (SF-539 CNS) of 10.8 µM. For the same molecule, the GI50 (SK-MEL-2 melanoma) was 1210 nM, the TGI (SK-MEL-2 melanoma) was 5.53 µM and the GI50 (SK-MEL-28 melanoma) was 1770 nM. For the same molecule, the TGI (SK-MEL-28 melanoma) was 3.3 µM, the GI50 (SK-MEL-5 melanoma) was 1530 nM and the TGI (SK-MEL-5 melanoma) was 2900 nM. It also gave a GI50 (SK-OV-3 ovarian) of 2080 nM, a TGI (SK-OV-3 ovarian) of 6.3 µM and a GI50 (SN12C renal) of 1070 nM. It also gave a TGI (SN12C renal) of 11.4 µM, a GI50 (SNB-19 CNS) of 2220 nM and a TGI (SNB-19 CNS) of 13 µM. It also gave a GI50 (SNB-75 CNS) of 1650 nM, a TGI (SNB-75 CNS) of 4.78 µM and a GI50 (SW-620 colon) of 478 nM. It also gave a TGI (SW-620 colon) of 1930 nM, a GI50 (T-47D breast) of 4.4 µM and a TGI (T-47D breast) of 18.9 µM. For the same molecule, the GI50 (TK-10 renal) was 624 nM, the TGI (TK-10 renal) was 2240 nM and the GI50 (U251 CNS) was 607 nM. For the same molecule, the TGI (U251 CNS) was 2010 nM, the GI50 (UACC-257 melanoma) was 1370 nM and the TGI (UACC-257 melanoma) was 3.12 µM. It also gave a GI50 (UACC-62 melanoma) of 2790 nM, a TGI (UACC-62 melanoma) of 16.8 µM and a GI50 (UO-31 renal) of 284 nM. The TGI (UO-31 renal) was 1660 nM.

From PubChem BioAssay (NCI)
